# Results as given in patent US6706663B2, “Herbicidal 3-heterocyclic substituted benzisothiazole and benzisoxazole compounds” (Wyeth, priority 2000, dated 2004).
# Tests used:
# [1] = tested on: GLXMAW (Soybean, Williams); experiment: Postemergence herbicidal evaluation; format: in vivo, Glycine max, (L.) Merr. cv Williams
# How it was run: (§1)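 Seedlings grown about two weeks in flats, sprayed, then kept under standard greenhouse care. Rated visually 4–5 weeks after treatment on a 0–9 scale (stand, vigour, malformation, size, chlorosis, overall appearance) relative to untreated control; repeat tests averaged.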
# [2] = tested on: CHEAL (Chenopodium album); experiment: Postemergence herbicidal evaluation; format: in vivo, L.
# How it was run: as §1
# [3] = tested on: CASOB (Cassia obtusifolia); experiment: Postemergence herbicidal evaluation; format: in vivo, L.
# How it was run: as §1
# [4] = tested on: AMBEL (Ambrosia artemisifolia); experiment: Postemergence herbicidal evaluation; format: in vivo, L.
# How it was run: as §1
# [5] = tested on: IPOHE (Ipomoea hederacea); experiment: Preemergence herbicidal evaluation; format: in vivo, (L.) Jacq.; conditions: preemergence, rated 4-5 weeks after treatment
# CYPIR (Cyperus iria) = experiment: Flooded paddy, preemergence weed control; format: in vivo; conditions: rated 3-4 weeks after treatment, 0-9 rating scale
# How it was run: (§2)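 Under paddy conditions, seeds or vegetative propagules go into the top 0.5 cm of silt loam; the soil is then flooded to 1.5–3 cm and kept so. Treated pots stay in a greenhouse; response is rated 0-9 visually versus control.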
# [6] = tested on: GLXMAW (Soybean, Williams); experiment: Preemergence herbicidal evaluation; format: in vivo, Glycine max, (L.) Merr. cv Williams; conditions: preemergence, rated 4-5 weeks after treatment
# [7] = tested on: CYPSE (Cyperus serotinus); experiment: Flooded paddy, preemergence weed control; format: in vivo, Rottb.; conditions: rated 3-4 weeks after treatment, 0-9 rating scale
# How it was run: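 Herbicidal effect was scored visually on a 0–9 scale against an untreated control 3–4 weeks after treatment. Compounds were applied preemergence as 50/50 v/v aqueous/acetone mixtures into flood water (1.5–3 cm deep over silt loam), at roughly 0.0080 to 0.1250 kg/ha active ingredient.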
# [8] = tested on: ECHCG (Echinochloa crus-galli); experiment: Postemergence herbicidal evaluation; format: in vivo, (L.) Beau
# How it was run: as §1
# GALAP (Galium aparine) = experiment: Postemergence herbicidal evaluation; format: in vivo
# How it was run: as §1
# ORYSAT (Rice, Tebonnet) = experiment: Preemergence herbicidal evaluation; format: in vivo, Oryza sativa, (L.) Tebonnet; conditions: preemergence, rated 4-5 weeks after treatment
# [9] = tested on: TRZAWR (Wheat, Winter, cv Riband); experiment: Preemergence herbicidal evaluation; format: in vivo, Triticum aestivum; conditions: preemergence, rated 4-5 weeks after treatment
# How it was run: (§3)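 Visual 0–9 rating versus control (stand, vigor, malformation, size, chlorosis, overall appearance), scored four to five weeks post-treatment. Preemergence spray of aqueous acetone solution onto freshly seeded soil cups; plants grown under conventional greenhouse care.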
# [10] = tested on: IPOHE (Ipomoea hederacea); experiment: Postemergence herbicidal evaluation; format: in vivo, (L.) Jacq.
# How it was run: as §1
# ZEAMX (Corn, Field) [11] = experiment: Postemergence herbicidal evaluation; format: in vivo, Zea mays, L.
# How it was run: as §1
# [12] = tested on: ECHORC (Echinochloa oryzoides); experiment: Flooded paddy, preemergence weed control; format: in vivo, Echinochloa oryzoides (Ard.) Fritsch.; conditions: rated 3-4 weeks after treatment, 0-9 rating scale
# How it was run: as §2
# [13] = tested on: SAGPY (Sagittaria pygmaea); experiment: Flooded paddy, preemergence weed control; format: in vivo, L.; conditions: rated 3-4 weeks after treatment, 0-9 rating scale
# How it was run: as §2
# [14] = tested on: CHEAL (Chenopodium album); experiment: Preemergence herbicidal evaluation; format: in vivo, L.; conditions: preemergence, rated 4-5 weeks after treatment
# How it was run: as §3
# [15] = tested on: CASOB (Cassia obtusifolia); experiment: Preemergence herbicidal evaluation; format: in vivo, L.; conditions: preemergence, rated 4-5 weeks after treatment
# How it was run: as §3
# [16] = tested on: AMBEL (Ambrosia artemisifolia); experiment: Preemergence herbicidal evaluation; format: in vivo, L.; conditions: preemergence, rated 4-5 weeks after treatment
# How it was run: as §3
# [17] = tested on: ABUTH (Abutilon theophrasti); experiment: Postemergence herbicidal evaluation; format: in vivo, Medic.
# How it was run: as §1
# ZEAMX (Corn, Field) [18] = experiment: Preemergence herbicidal evaluation; format: in vivo, Zea mays, L.; conditions: preemergence, rated 4-5 weeks after treatment
compound,measurement,setting,value
"Cc1csc(-c2nsc3ccc(-n4c(=O)cc(C(F)(F)F)n(C)c4=O)cc23)n1 [Compound 7, 1-methyl-3-[3-(4-methyl-2-thiazolyl)-1,2-benzisothiazol-5-yl]-6-(trifluoromethyl)uracil]","Postemergence herbicidal rating, GLXMAW",[1]; rate 0.0320 kg/ha,5.0
same,"Postemergence herbicidal rating, GLXMAW",[1]; rate 0.0620 kg/ha,5.0
same,"Postemergence herbicidal rating, GLXMAW",[1]; rate 0.1250 kg/ha,5.5
same,"Postemergence herbicidal rating, CHEAL",[2]; rate 0.0320 kg/ha,4.0
same,"Postemergence herbicidal rating, CHEAL",[2]; rate 0.0620 kg/ha,4.0
same,"Postemergence herbicidal rating, CHEAL",[2]; rate 0.1250 kg/ha,9.0
same,"Postemergence herbicidal rating, CASOB",[3]; rate 0.0320 kg/ha,0.0
same,"Postemergence herbicidal rating, CASOB",[3]; rate 0.0620 kg/ha,0.0
same,"Postemergence herbicidal rating, CASOB",[3]; rate 0.1250 kg/ha,3.0
same,"Postemergence herbicidal rating, AMBEL",[4]; rate 0.0320 kg/ha,2.0
same,"Postemergence herbicidal rating, AMBEL",[4]; rate 0.0620 kg/ha,4.0
same,"Postemergence herbicidal rating, AMBEL",[4]; rate 0.1250 kg/ha,9.0
same,IPOHE preemergence herbicidal rating,[5]; Rate 0.0620 kg/ha,0.0
same,IPOHE preemergence herbicidal rating,[5]; Rate 0.1250 kg/ha,0.0
same,IPOHE preemergence herbicidal rating,[5]; Rate 0.2500 kg/ha,9.0
same,"herbicidal rating, CYPIR",CYPIR (Cyperus iria); rate 0.0080 kg/ha,7.0
same,"herbicidal rating, CYPIR",CYPIR (Cyperus iria); rate 0.0320 kg/ha,8.5
same,"herbicidal rating, CYPIR",CYPIR (Cyperus iria); rate 0.1250 kg/ha,9.0
same,GLXMAW preemergence herbicidal rating,[6]; Rate 0.0620 kg/ha,0.0
same,GLXMAW preemergence herbicidal rating,[6]; Rate 0.1250 kg/ha,0.0
same,GLXMAW preemergence herbicidal rating,[6]; Rate 0.2500 kg/ha,2.0
same,"herbicidal rating, CYPSE",[7]; rate 0.0080 kg/ha,0.0
same,"herbicidal rating, CYPSE",[7]; rate 0.0320 kg/ha,0.0
same,"herbicidal rating, CYPSE",[7]; rate 0.1250 kg/ha,0.0
same,"Postemergence herbicidal rating, ECHCG",[8]; rate 0.0320 kg/ha,0.0
same,"Postemergence herbicidal rating, ECHCG",[8]; rate 0.0620 kg/ha,0.0
same,"Postemergence herbicidal rating, ECHCG",[8]; rate 0.1250 kg/ha,0.0
same,"Postemergence herbicidal rating, GALAP",GALAP (Galium aparine); rate 0.0320 kg/ha,2.0
same,"Postemergence herbicidal rating, GALAP",GALAP (Galium aparine); rate 0.0620 kg/ha,9.0
same,"Postemergence herbicidal rating, GALAP",GALAP (Galium aparine); rate 0.1250 kg/ha,7.0
same,ORYSAT preemergence herbicidal rating,"ORYSAT (Rice, Tebonnet); Rate 0.0620 kg/ha",0.0
same,ORYSAT preemergence herbicidal rating,"ORYSAT (Rice, Tebonnet); Rate 0.1250 kg/ha",0.0
same,ORYSAT preemergence herbicidal rating,"ORYSAT (Rice, Tebonnet); Rate 0.2500 kg/ha",0.0
same,TRZAWR preemergence herbicidal rating,[9]; Rate 0.0620 kg/ha,0.0
same,TRZAWR preemergence herbicidal rating,[9]; Rate 0.1250 kg/ha,2.0
same,TRZAWR preemergence herbicidal rating,[9]; Rate 0.2500 kg/ha,2.0
same,"Postemergence herbicidal rating, IPOHE",[10]; rate 0.0320 kg/ha,2.0
same,"Postemergence herbicidal rating, IPOHE",[10]; rate 0.0620 kg/ha,9.0
same,"Postemergence herbicidal rating, IPOHE",[10]; rate 0.1250 kg/ha,9.0
same,"Postemergence herbicidal rating, ZEAMX","ZEAMX (Corn, Field) [11]; rate 0.0320 kg/ha",5.0
same,"Postemergence herbicidal rating, ZEAMX","ZEAMX (Corn, Field) [11]; rate 0.0620 kg/ha",6.0
same,"Postemergence herbicidal rating, ZEAMX","ZEAMX (Corn, Field) [11]; rate 0.1250 kg/ha",7.5
same,"herbicidal rating, ECHORC",[12]; rate 0.0080 kg/ha,0.0
same,"herbicidal rating, ECHORC",[12]; rate 0.0320 kg/ha,5.0
same,"herbicidal rating, ECHORC",[12]; rate 0.1250 kg/ha,9.0
same,"herbicidal rating, SAGPY",[13]; rate 0.0080 kg/ha,0.0
same,"herbicidal rating, SAGPY",[13]; rate 0.0320 kg/ha,0.0
same,"herbicidal rating, SAGPY",[13]; rate 0.1250 kg/ha,1.0
same,CHEAL preemergence herbicidal rating,[14]; Rate 0.0620 kg/ha,9.0
same,CHEAL preemergence herbicidal rating,[14]; Rate 0.1250 kg/ha,9.0
same,CHEAL preemergence herbicidal rating,[14]; Rate 0.2500 kg/ha,9.0
same,CASOB preemergence herbicidal rating,[15]; Rate 0.0620 kg/ha,0.0
same,CASOB preemergence herbicidal rating,[15]; Rate 0.1250 kg/ha,3.0
same,CASOB preemergence herbicidal rating,[15]; Rate 0.2500 kg/ha,9.0
same,AMBEL preemergence herbicidal rating,[16]; Rate 0.0620 kg/ha,0.0
same,AMBEL preemergence herbicidal rating,[16]; Rate 0.1250 kg/ha,0.0
same,AMBEL preemergence herbicidal rating,[16]; Rate 0.2500 kg/ha,0.0
same,"Postemergence herbicidal rating, ABUTH",[17]; rate 0.0320 kg/ha,9.0
same,"Postemergence herbicidal rating, ABUTH",[17]; rate 0.0620 kg/ha,9.0
same,"Postemergence herbicidal rating, ABUTH",[17]; rate 0.1250 kg/ha,9.0
same,ZEAMX preemergence herbicidal rating,"ZEAMX (Corn, Field) [18]; Rate 0.0620 kg/ha",0.0
same,ZEAMX preemergence herbicidal rating,"ZEAMX (Corn, Field) [18]; Rate 0.1250 kg/ha",4.0
same,ZEAMX preemergence herbicidal rating,"ZEAMX (Corn, Field) [18]; Rate 0.2500 kg/ha",8.0
